Reference: article PMC9386018, “A lymphatic-absorbed multi-targeted kinase inhibitor for myelofibrosis therapy” (Nature Communications, 2022)

Key:
Experiment in all cases: Single-point broad panel kinome screening (SelectScreen Z'-LYTE and Adapta)
Format in all cases: biochemical
[1] = biological target: 321 human protein kinases (Homo sapiens, UniProt Q16539); conditions: MAPK14 (p38 alpha); […] LP-182; [ATP] 100 μM
Procedure: (§1) Quantitation of kinase inhibition was carried out by Life Technologies (Madison, WI) using the SelectScreen profiling platforms Z’-LYTE^TM and Adapta^TM. Single-point broad panel kinome screening was performed at 2.5 µM LP-182 against all kinases within the Z’-LYTE^TM and Adapta^TM assays (321 kinase isoforms, holoenzymes, or mutant variants). The average percent kinase inhibition from replicate data was ranked low to high, converted to a compatible identifier format, then input into Coral Human Kinome Visualization software for presentation analysis. […] Scaling of evolutionary distance for PI kinases is only relative and is based on literature analysis[62],[63]. Average percent kinome inhibition values from replicate data are supplied in Source Data file. […]. Corrected data was normalized to vehicle treated control values, and dose response percent kinase activity was analyzed by non-linear regression for determination of IC50 values.

[2] = biological target: 321 human protein kinases (Homo sapiens, UniProt Q99755); conditions: PIP5K1A; […] LP-182; [ATP] 10 μM
Procedure: as §1

[3] = biological target: 321 human protein kinases (Homo sapiens, UniProt P52564); conditions: MAP2K6 (MKK6); […] LP-182; [ATP] 100 μM
Procedure: as §1

[4] = biological target: 321 human protein kinases (Homo sapiens, UniProt P45984); conditions: MAPK9 (JNK2); […] LP-182; [ATP] 100 μM
Procedure: as §1

[5] = biological target: 321 human protein kinases (Homo sapiens, UniProt P42356); conditions: PI4KA (PI4K alpha); […] LP-182; [ATP] 10 μM
Procedure: as §1

[6] = biological target: 321 human protein kinases (Homo sapiens, UniProt O60331); conditions: PIP5K1C; […] LP-182; [ATP] 10 μM
Procedure: as §1

[7] = biological target: 321 human protein kinases (Homo sapiens, UniProt O14986); conditions: PIP5K1B; […] LP-182; [ATP] 10 μM
Procedure: as §1

[8] = biological target: 321 human protein kinases (Homo sapiens, UniProt P45983); conditions: MAPK8 (JNK1); […] LP-182; [ATP] 100 μM
Procedure: as §1

[9] = biological target: 321 human protein kinases (Homo sapiens, UniProt O15530); conditions: PDK1; […] LP-182; [ATP] 100 μM
Procedure: as §1

Sequence of 321 human protein kinases (Homo sapiens, UniProt O14986) (O14986 whole entry): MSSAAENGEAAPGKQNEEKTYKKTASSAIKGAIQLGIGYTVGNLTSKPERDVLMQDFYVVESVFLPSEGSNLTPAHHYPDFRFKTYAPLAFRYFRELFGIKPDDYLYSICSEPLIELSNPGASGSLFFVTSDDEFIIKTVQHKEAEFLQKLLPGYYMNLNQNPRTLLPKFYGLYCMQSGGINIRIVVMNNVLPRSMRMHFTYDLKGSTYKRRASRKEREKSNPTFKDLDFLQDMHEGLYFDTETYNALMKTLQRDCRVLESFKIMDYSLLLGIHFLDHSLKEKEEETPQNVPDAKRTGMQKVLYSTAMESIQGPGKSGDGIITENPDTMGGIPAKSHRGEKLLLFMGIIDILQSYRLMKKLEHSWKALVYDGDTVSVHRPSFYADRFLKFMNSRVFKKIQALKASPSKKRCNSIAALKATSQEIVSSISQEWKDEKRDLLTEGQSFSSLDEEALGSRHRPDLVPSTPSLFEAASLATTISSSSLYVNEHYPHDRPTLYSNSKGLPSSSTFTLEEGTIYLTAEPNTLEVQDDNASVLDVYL
Sequence of 321 human protein kinases (Homo sapiens, UniProt P52564) (P52564 whole entry): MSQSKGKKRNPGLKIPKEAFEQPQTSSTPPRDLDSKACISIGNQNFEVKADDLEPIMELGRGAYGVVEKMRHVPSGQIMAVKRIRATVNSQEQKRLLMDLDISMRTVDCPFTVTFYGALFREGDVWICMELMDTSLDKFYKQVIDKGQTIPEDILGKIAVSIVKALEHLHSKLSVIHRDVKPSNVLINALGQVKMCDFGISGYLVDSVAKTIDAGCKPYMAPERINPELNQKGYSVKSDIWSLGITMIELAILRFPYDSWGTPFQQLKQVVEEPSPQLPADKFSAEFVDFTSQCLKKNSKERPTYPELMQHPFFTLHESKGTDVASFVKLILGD
Sequence of 321 human protein kinases (Homo sapiens, UniProt P45984) (P45984 whole entry): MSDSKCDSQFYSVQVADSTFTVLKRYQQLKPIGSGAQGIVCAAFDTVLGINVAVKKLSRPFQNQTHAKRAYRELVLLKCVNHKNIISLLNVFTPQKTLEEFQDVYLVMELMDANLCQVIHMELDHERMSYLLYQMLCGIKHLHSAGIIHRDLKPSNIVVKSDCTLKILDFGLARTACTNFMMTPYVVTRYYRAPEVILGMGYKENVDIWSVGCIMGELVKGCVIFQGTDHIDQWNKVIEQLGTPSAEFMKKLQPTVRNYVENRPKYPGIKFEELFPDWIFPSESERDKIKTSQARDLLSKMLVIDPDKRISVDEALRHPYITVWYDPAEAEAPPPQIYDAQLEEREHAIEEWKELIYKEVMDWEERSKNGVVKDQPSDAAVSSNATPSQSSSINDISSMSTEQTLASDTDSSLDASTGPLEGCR
Sequence of 321 human protein kinases (Homo sapiens, UniProt Q16539) (Q16539 whole entry, canonical isoform): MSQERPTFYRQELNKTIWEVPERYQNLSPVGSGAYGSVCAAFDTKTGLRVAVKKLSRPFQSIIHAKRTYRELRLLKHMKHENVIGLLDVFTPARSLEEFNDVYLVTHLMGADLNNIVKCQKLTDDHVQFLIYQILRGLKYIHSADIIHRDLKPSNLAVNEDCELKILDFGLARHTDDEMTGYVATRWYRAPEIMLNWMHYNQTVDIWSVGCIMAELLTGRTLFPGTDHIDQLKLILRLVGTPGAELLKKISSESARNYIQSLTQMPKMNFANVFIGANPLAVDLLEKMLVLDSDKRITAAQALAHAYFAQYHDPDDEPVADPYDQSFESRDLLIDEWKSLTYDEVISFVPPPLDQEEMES
Sequence of 321 human protein kinases (Homo sapiens, UniProt Q99755) (Q99755 whole entry): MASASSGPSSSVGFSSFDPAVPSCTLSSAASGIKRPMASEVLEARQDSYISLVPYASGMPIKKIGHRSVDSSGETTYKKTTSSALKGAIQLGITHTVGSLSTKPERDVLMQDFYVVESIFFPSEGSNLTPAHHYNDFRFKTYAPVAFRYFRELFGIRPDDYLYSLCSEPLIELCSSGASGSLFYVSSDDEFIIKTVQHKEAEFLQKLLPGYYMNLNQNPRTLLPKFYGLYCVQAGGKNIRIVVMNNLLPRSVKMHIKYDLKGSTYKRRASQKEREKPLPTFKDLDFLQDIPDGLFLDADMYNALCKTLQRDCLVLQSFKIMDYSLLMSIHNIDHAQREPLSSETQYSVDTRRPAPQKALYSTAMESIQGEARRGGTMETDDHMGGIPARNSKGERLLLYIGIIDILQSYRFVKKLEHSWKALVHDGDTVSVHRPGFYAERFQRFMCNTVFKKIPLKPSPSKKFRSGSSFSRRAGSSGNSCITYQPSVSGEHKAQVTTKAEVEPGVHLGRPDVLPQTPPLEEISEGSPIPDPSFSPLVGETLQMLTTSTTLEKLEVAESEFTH
Sequence of 321 human protein kinases (Homo sapiens, UniProt O60331) (O60331 whole entry): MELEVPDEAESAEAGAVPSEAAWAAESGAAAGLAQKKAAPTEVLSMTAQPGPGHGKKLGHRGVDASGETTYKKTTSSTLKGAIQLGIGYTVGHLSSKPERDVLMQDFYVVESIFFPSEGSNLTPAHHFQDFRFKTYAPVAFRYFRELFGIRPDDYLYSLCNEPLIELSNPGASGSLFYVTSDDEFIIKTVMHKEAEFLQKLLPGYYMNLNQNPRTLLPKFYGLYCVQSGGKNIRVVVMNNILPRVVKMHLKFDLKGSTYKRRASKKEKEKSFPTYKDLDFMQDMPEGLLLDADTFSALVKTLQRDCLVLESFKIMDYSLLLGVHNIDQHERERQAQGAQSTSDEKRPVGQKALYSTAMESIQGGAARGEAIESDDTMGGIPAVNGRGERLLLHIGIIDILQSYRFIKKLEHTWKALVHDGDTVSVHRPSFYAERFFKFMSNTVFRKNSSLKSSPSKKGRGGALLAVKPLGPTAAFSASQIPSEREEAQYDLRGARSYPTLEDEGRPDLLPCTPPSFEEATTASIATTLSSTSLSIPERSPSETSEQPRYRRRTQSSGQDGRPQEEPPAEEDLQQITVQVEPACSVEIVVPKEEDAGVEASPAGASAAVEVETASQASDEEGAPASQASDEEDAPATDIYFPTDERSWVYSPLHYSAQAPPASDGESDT
Sequence of 321 human protein kinases (Homo sapiens, UniProt P42356) (P42356 whole entry): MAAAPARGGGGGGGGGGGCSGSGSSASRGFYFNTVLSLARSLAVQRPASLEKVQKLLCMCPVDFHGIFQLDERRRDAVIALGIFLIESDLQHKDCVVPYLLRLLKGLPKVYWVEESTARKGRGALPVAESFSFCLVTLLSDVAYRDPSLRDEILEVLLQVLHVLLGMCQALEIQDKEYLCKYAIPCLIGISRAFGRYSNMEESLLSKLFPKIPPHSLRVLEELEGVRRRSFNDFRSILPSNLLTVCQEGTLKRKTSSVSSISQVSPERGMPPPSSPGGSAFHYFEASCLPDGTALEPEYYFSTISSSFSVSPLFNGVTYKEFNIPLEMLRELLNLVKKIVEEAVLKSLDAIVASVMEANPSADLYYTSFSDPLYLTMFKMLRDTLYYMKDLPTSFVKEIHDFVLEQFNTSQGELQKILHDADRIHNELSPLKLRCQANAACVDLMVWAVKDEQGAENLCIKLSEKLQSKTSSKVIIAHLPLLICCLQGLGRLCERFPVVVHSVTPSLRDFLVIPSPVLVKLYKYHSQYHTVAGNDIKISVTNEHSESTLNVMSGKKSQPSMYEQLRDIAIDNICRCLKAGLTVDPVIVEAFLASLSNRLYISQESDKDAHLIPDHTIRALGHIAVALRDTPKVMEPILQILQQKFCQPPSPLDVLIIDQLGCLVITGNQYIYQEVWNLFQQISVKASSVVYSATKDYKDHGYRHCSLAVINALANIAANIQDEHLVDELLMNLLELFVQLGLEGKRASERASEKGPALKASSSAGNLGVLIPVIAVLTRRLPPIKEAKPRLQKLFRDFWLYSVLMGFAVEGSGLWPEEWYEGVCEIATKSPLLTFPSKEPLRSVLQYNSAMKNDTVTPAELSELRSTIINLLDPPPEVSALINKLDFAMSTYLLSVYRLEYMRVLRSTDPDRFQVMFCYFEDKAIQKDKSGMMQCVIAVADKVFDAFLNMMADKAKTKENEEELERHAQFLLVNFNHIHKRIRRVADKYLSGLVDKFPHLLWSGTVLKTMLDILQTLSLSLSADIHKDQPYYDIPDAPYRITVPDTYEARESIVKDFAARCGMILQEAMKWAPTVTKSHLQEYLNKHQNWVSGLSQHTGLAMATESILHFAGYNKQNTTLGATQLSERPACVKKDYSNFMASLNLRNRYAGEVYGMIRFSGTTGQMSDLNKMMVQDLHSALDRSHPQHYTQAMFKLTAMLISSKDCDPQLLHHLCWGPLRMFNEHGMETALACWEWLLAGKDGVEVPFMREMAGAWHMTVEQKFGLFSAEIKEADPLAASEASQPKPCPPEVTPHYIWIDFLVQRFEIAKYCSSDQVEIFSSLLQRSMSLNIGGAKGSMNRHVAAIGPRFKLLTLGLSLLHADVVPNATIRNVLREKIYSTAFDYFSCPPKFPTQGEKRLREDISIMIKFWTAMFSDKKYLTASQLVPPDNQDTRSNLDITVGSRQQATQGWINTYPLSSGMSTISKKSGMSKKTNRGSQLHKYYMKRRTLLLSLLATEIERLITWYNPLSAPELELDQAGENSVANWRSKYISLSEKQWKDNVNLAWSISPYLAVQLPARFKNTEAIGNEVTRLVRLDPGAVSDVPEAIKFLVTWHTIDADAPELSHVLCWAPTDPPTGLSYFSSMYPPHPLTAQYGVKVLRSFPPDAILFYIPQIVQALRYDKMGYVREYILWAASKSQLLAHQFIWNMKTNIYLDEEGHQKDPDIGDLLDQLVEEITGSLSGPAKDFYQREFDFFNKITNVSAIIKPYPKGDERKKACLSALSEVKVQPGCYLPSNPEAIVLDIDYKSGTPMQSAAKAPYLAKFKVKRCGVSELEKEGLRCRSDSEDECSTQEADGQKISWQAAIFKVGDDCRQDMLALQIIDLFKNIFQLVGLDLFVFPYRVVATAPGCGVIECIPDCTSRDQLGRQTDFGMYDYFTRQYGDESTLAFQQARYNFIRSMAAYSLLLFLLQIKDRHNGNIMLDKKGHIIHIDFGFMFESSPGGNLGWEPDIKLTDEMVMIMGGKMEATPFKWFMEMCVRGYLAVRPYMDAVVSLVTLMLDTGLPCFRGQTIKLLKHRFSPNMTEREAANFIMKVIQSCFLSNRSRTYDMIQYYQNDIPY

SMILES: O=C(NOCCOCCOCCOCCC(=O)N1CCN(c2cnc3ccc(-c4cnc(Cl)c(NS(=O)(=O)c5ccc(F)cc5)c4)cc3n2)CC1)c1ccc(F)c(F)c1Nc1ccc(I)cc1F [LP-182, N-(2-(2-(2-(3-(4-(7-(6-chloro-5-((4-fluorophenyl)sulfonamido)pyridin-3-yl)quinoxalin-2-yl)piperazin-1-yl)-3-oxopropoxy)ethoxy)ethoxy)ethoxy)-3,4-difluoro-2-((2-fluoro-4-iodophenyl)amino)benzamide]
- inhibition at […] [1]: 22%
- inhibition at […] [2]: 26%
- inhibition at […] [3]: 16%
- inhibition at […] [4]: 2.22%
- inhibition at […] [5]: 24%
- inhibition at […] [6]: 28%
- % Inhibition [7]: 14%
- inhibition at […] [7]: 13%
- inhibition at […] [8]: 15%
- inhibition at […] [9]: 15%
